One compound from US9358250B2, “Methods of using SCD1 antagonists” (Genentech, Inc., priority 2011, dated 2016) can be followed below.

Type in all cases: cell-based, human
Assay [1] relates to phosphorylation of AKT, S6, and MAPK. Nature of the assay: Western blot, FGF1-stimulated RT112 cells. The following applies: rapamycin 50 nM, Ly294002 20 μM, PD325901 100 nM. The method, then:
(§1) FIG. 8. FGFR3 signalling promotes the accumulation of matured SREBP1 and lipogenesis via PI3K-mTORC1 pathway. (A) Pharmacological inhibition of FGFR3 signalling. RT112 cells were serum starved for 20 hr, then treated with rapamycin (50 nM), Ly294002 (Ly294, 20 μM) and PD325901(PD901, 100 nM) for 2 hr, followed by stimulation with 30 ng/ml FGF1 plus 10 μg/mL of heparin for 10 min. Cell lysates were subjected to immunoblot analyses with indicated antibodies. Note the increased phosphorylation of MEK upon PD901 treatment, presumably due to a relief of feedback inhibition. (B) PI3K-mTORC1 and MEK inhibitors block FGF1 induction of SREBP1 and SCD1 in RT112 cells. RT112 cells were serum starved for 20 hr, treated with kinase inhibitors for 4 hr, followed by 24 hr incubation in medium supplemented with 30 ng/ml FGF1. Cell lysates were immunoblotted to detect SREBP1 maturation, SCD1 and FASN expression. (C) PI3K-mTORC1 and MEK inhibitors block FGF1-stimulated lipid synthesis. RT112 cells were treated the same as described in (B). [^14C]acetate was added for the final 4 hr incubation. The lipid fraction was extracted and [^14C]acetate incorporated into lipids was measured by scintillation counting. Data were normalized to sample protein content, and presented as mean+/−SD. […]
(A western blot detects proteins with antibodies after separation by electrophoresis.)

In assay [2] the test system is SREBP1 maturation, SCD1 and FASN expression. Nature of the assay: Western blot, FGF1-treated RT112 cells. The method, then:
FIG. 8. FGFR3 signalling promotes the accumulation of matured SREBP1 and lipogenesis via PI3K-mTORC1 pathway. (A) Pharmacological inhibition of FGFR3 signalling. RT112 cells were serum starved for 20 hr, then treated with rapamycin (50 nM), Ly294002 (Ly294, 20 μM) and PD325901(PD901, 100 nM) for 2 hr, followed by stimulation with 30 ng/ml FGF1 plus 10 μg/mL of heparin for 10 min. Cell lysates were subjected to immunoblot analyses with indicated antibodies. Note the increased phosphorylation of MEK upon PD901 treatment, presumably due to a relief of feedback inhibition. (B) PI3K-mTORC1 and MEK inhibitors block FGF1 induction of SREBP1 and SCD1 in RT112 cells. RT112 cells were serum starved for 20 hr, treated with kinase inhibitors for 4 hr, followed by 24 hr incubation in medium supplemented with 30 ng/ml FGF1. Cell lysates were immunoblotted to detect SREBP1 maturation, SCD1 and FASN expression. (C) PI3K-mTORC1 and MEK inhibitors block FGF1-stimulated lipid synthesis. RT112 cells were treated the same as described in (B). [^14C]acetate was added for the final 4 hr incubation. The lipid fraction was extracted and [^14C]acetate incorporated into lipids was measured by scintillation counting. Data were normalized to sample protein content, and presented as mean+/−SD.
(§2) It's worth noting that in Ca129 bladder cancer cells, rapamycin and Ly294002 blocked the accumulation of active SREBP1 and the expression of SCD1, consistent with the results observed in RT112 cells (FIG. 9). […] Thus, in bladder cancer cells, FGFR3 mainly signals through PI3K-mTORC1 axis to promote SREBP1 cleavage and activation, resulting in elevated de novo lipogenesis and fatty acid desaturation. The contribution of MEK-MAPK pathway may be cell line- and/or context-dependent.

Assay [3] concerns total fatty acid synthesis. Briefly: FGF1-stimulated lipid synthesis, [^14C]acetate, RT112 cells. The method, then:
as §1, with “(C) PI3K-mTORC1 and MEK inhibitors block FGF1-stimulated lipid synthesis. RT112 cells were treated the same as described in (B). [^14C]acetate was added for the final 4 hr incubation.” left out, “counting.” for “counting. Data were normalized to sample protein content, and presented as mean+/−SD.”
Lipogenic activity was determined by monitoring the incorporation of [1,2-^14C] acetate (Perkin Elmer, Waltham, Mass.) into fatty acids as reported (39). […] The fatty acids fractions were collected, dried under a steam of nitrogen, and analyzed by scintillation counting. The [^14C] radioactivity was normalized to sample protein content. […]

The subject of assay [4] is matured SREBP1 and SCD1 expression. Nature of the assay: Western blot, FGF1-treated Ca129 cells. The method, then:
FIG. 9. FGFR3 signalling promotes the accumulation of matured SREBP1 and SCD1 expression via PI3K-mTORC1 pathway but not MEK-MAPK pathway in Ca129 cells. Ca129 cells were serum starved for 20 hr, treated for 4 hr with vehicle (DMSO), 50 nM rapamycin (Rapa), Ly294002 (Ly294, 20 μM) and PD325901(PD901, 100 nM). Then cells were cultured in medium supplemented with 30 ng/ml FGF1 for 24 hr. Cell lysates were analyzed by Western blot.
as §2

Molecules are shown by their SMILES.

Consider `O=C(NOC[C@H](O)CO)c1ccc(F)c(F)c1Nc1ccc(I)cc1F` [PD325901], for which the “FGF1-induced activation of intended target (phosphorylation)” value in assay [1] was “blunted FGF1-induced activation of their intended target”. Besides, in assay [2], the FASN expression entry is recorded as “reduced only modestly”; the SCD1 expression entry is “diminished significantly”; the “basal and FGF1-induced level of the cleaved active SREBP1” value is on record as “substantially reduced”. Also, the “total fatty acid synthesis stimulated by FGF1” value in assay [3] is reported as “markedly suppressed”. Moreover, in assay [4], the “accumulation of active SREBP1” value is on record as “only partially reduced” and the “expression / induction of SCD1” value is on record as “did not have much effect”.
